Measurements taken from patent US20250333699A1, “METHOD FOR PREPARATION OF CYTOTOXIC T LYMPHOCYTES WITH BROAD TUMOUR-SPECIFIC REACTIVITY AND CHARACTERISTICS OF EARLY DIFFERENTIATION CELLS” (priority 2021, published 2025).

System: MAGE antigens
Assay: Expression of MAGE antigens by RT-PCR (Q-PCR) in CD3/CD28-activated lymphocytes
Type: cell-based, human
Settings: 10 μM for 2 days in the presence of IL-2 (150 IU/ml); FIG. 3
Experimental: Expression of MAGE antigens was determined as follows. The frozen pellets of cells were thawed, and total RNA was isolated from lymphocytes using the NucleoSpin RNA Plus kit (Macherey-Nagel), and reverse transcribed using SuperScript™ IV VILO™ Master Mix with ezDNase™ Enzyme (Invitrogen) and random hexamers and oligo(dT24) primers. cDNA was amplified in a LightCycler Nano (Roche) using the FastStart Essential DNA Green Master mix (Roche) and previously described primers and conditions (Weinert et al., 2009), except primers for MAGE-A4, provided by RealTimePrimers.com. The data were normalized to GAPDH expression.
The cell suspension was transferred to a 50 ml tube, and the cell concentration was determined. At this stage the culture contains only activated lymphocytes, and upon counting in a Moxi cell counter appear as a single peak of cells with an average size of 10-11 μm. 2×10^7 cells (or all cells) were set for centrifugation. […]
5-Aza-CdR-treated cultures were harvested and centrifuged. […] After this, cells were counted, and 10×10^6 cells were mixed with 10×10^6 thawed lymphocytes, and after centrifugation, resuspended in 20 ml of lymphocyte medium and transferred to a T75 tissue culture flask, side position. […]

Nc1ncn([C@H]2C[C@H](O)[C@@H](CO)O2)c(=O)n1 [5-aza-CdR, 5-aza-2′-deoxycytidine]
expression of selected CT antigens of the MAGE family: Robust and consistent expression
